The values that follow come from US20220040263A1, “COMPANION DIAGNOSTIC FOR COMBINATION LENALIDOMIDE AND ERYTHROPOIETIN TREATMENT” (H. Lee Moffitt Cancer Center and Research Institute, Inc., priority 2016, published 2022).

Structures are written as SMILES. Read-outs that look alike come from different tables or passages of the source.

Assay [1] concerns azanucleoside-naive, transfusion-dependent LR, non-del(5q) MDS patients. To be noted: cited from earlier work.
A further assay has as its system STAT5. Briefly: STAT5 phosphorylation in UT7 cells by Western immunoblot. Format: cell-based. Here is the method: FIGS. 2A and 2B show potentiation of STAT 5 activation by lenalidomide. […] Whole cell lysates were assayed for actin (Sigma), STAT5 and phospho-STAT5 (Cell Signaling) by Western immunoblot as previously described. […] K562 leukemia cells served as a positive control.
To determine if lenalidomide modulates EPO-R signaling to enhance cytokine induced clonogenic response, STAT5 phosphorylation and its nuclear trans-activation was evaluated after treatment with either lenalidomide or EPO alone, or the combination [FIG. 2A].
(In western blotting, separated proteins are transferred to a membrane and probed.)

Regarding `Nc1cccc2c1CN(C1CCC(=O)NC1=O)C2=O` (centres unmarked) [lenalidomide, 3-(4-amino-1-oxo-1,3-dihydro-2H-isoindol-2-yl)piperidine-2,6-dione], in assay [1] (MDS-002 and MDS-005 trials), the RBC transfusion-independence is 26%. In addition, the “median duration of RBC transfusion-independence” value in assay [1] (MDS-002 trial) is recorded as 10.2 months; in assay [1] (MDS-005 trial), 7.75 months. In the assay on STAT5 (Western immunoblot, lenalidomide followed by EPO), the “EPO-induced phosphorylation of STAT5” value was “increased”. Besides, in the assay on STAT5 (lenalidomide alone), the STAT5 phosphorylation result is on record as “no effect”.
